# Entries after “also recorded” stand apart in the source; their conditions may differ.
# Tested on: protein kinase
# Assay: HTS ATP-utilizing enzyme assay, off-chip mobility-shift format (Caliper HTS 250)
# Format: biochemical, human
# Details: test compound 10 μM; for protein kinase against which the compound exhibits inhibitory activity (Table 3): active = activity greater than three-sigma from the mean of the predominately inactive population for that enzyme; for Kinase: kinase(s) for which the compound exhibits protein kinase inhibitory activity, active = greater than three-sigma from the mean activity of inactive compounds
# Procedure, shortened: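 Kinase reactions ran 2.5 h at 20 to 22 °C with test compound at 10 μM, in a HEPES pH 7.5 master buffer containing Triton X-100 and BSA. Peptide substrate and phosphorylated product separated by mobility shift; inhibition normalized to DMSO (0%) and EDTA (100%) controls, with three-sigma thresholds for hits.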
Compound,protein kinase against which the compound exhibits inhibitory activity (Table 3),Kinase
CCOc1ccc(Nc2nc(Cc3nnc(SCc4cccnc4)n3CC)cs2)cc1,CHEK2; also recorded: AURORA-A,
COCCn1c(SCC(=O)O)nnc1-c1cc2c(C)nn(-c3ccccc3)c2s1,,AKT1
CCn1c(COc2ccc(Cl)c(C)c2)nnc1SCC#N,,AURORA-A
COc1cc(-c2nnc(SCC(=O)Nc3cc([N+](=O)[O-])ccc3C)n2C)cc(OC)c1OC,,MAPKAPK-2
"COC(=O)CSc1nnc(-c2ccncc2)[nH]1 [methyl 2-(5-(pyridin-4-yl)-4H-1,2,4-triazol-3-ylthio)acetate]",,AURORA-A; also recorded: DYRK2; also recorded: GSK3-β
COCCCn1c(C)nnc1SCC(=O)Nc1ccccc1[N+](=O)[O-],,FYN
COc1ccc(-n2c(SCC(N)=O)nnc2-c2ccc(S(=O)(=O)N3CCCC3)cc2)cc1,,MAPKAPK-2
"CC(Sc1nnc(-c2cccnc2)n1-c1ccccc1)C(=O)O (stereo not shown) [2-(4-phenyl-5-(pyridin-3-yl)-4H-1,2,4-triazol-3-ylthio)propanoic acid]",,AURORA-A
"O=[N+]([O-])c1ccc(-c2nnc(SCCN3CCOCC3)[nH]2)cc1 [4-(2-(5-(4-nitrophenyl)-4H-1,2,4-triazol-3-ylthio)ethyl)morpholine]",GSK3-β; also recorded: GSK3-α; also recorded: AURORA-A,
Cc1ccc(-n2c(CNc3cccc(Cl)c3)nnc2SCC(=O)c2ccc(Cl)cc2)cc1,,LYNA
COc1ccccc1-n1c(SCc2ccc(F)c(F)c2)nnc1-c1cccc(Cl)c1,ROCK2,
"Oc1ccc(-c2nnc(S)n2-c2cccc(Cl)c2)cc1 [4-(4-(3-chlorophenyl)-5-mercapto-4H-1,2,4-triazol-3-yl)phenol]",,CDK5 and CDK2-cyclinA and CDK2-cyclinE
CCn1c(CNc2cccc(Cl)c2)nnc1SCC#N,,CDK2-cyclinA
Cn1c(SCC(=O)NNC(=O)c2ccccc2O)nnc1-c1ccccc1,FYN and FLT-3 and CSK,
"CC(C)Cn1c(SCC(=O)OCc2ccccc2)nnc1-c1ccccc1O [benzyl 2-(5-(2-hydroxyphenyl)-4-isobutyl-4H-1,2,4-triazol-3-ylthio)acetate]",,CDK2-cyclinE
"CCOC(=O)CCSc1nnc(-c2cccnc2)[nH]1 [ethyl 3-(5-(pyridin-3-yl)-4H-1,2,4-triazol-3-ylthio)propanoate]",AURORA-A; also recorded: DYRK2,
"O=C(CSc1nncn1-c1cccnc1)Nc1ccccc1[N+](=O)[O-] [N-(2-nitrophenyl)-2-(4-(pyridin-3-yl)-4H-1,2,4-triazol-3-ylthio)acetamide]",,FYN
Cc1ccc(-n2c(SCC(=O)CC(=O)Nc3ccccc3)nnc2-c2cccnc2)cc1,,AURORA-A
Cc1cc(C)nc(SCc2nnc(SCC(=O)NNC(=O)c3ccccc3O)n2-c2ccccc2)n1,FYN and SRC and HCK,
COc1ccccc1-n1c(SC(C)C(=O)NCc2ccco2)nnc1-c1ccccc1 (stereo not shown),AKT1,
COc1ccc(NCc2nnc(SCC(=O)Nc3cccc(C(F)(F)F)c3)n2C)cc1,,PDGFRR-α and FYN and FLT-3
NC(=O)CSc1nnc(-c2ccc(NS(=O)(=O)c3ccccc3)cc2)n1-c1ccccc1,,AURORA-A
CCN(CC)C(=O)CSc1nnc(-c2ccc(S(=O)(=O)N3CCCCCC3)cc2)n1CC,,AURORA-A
CCOc1ccc(Nc2nnc(SCC(=O)c3cc(C(C)(C)C)c(O)c(C(C)(C)C)c3)n2-c2ccc(OCC)cc2)cc1,,FYN
"CCC(c1ccccc1)c1nnc(SCc2ccc(C(=O)O)cc2)[nH]1 (stereo not shown) [4-((5-(1-phenylpropyl)-4H-1,2,4-triazol-3-ylthio)methyl)benzoic acid]",AURORA-A,

Compound,protein kinase against which the compound exhibits inhibitory activity (Table 3),Kinase
"Cn1cnnc1SCC(=O)N1c2ccccc2Sc2ccccc21 [2-(4-methyl-4H-1,2,4-triazol-3-ylthio)-1-(10H-phenothiazin-10-yl)ethanone]",,LCK
CC(C)OC(=O)CSc1nnc(-c2cccnc2)n1Cc1ccco1,,AKT1
"COc1ccccc1-c1nnc(S)n1Cc1ccccc1 [4-benzyl-5-(2-methoxyphenyl)-4H-1,2,4-triazole-3-thiol]",,AURORA-A
CCn1c(COc2cccc3ccccc23)nnc1SCCC(=O)O,AURORA-A,
CCn1c(SCc2ccc(-c3csnn3)cc2)nnc1-c1cc(-c2ccccc2)nc2ccccc12,c-TAK1,
"CCn1c(COc2ccc(C)cc2)nnc1SCc1ccc(C)cc1 [4-ethyl-3-(4-methylbenzylthio)-5-(p-tolyloxymethyl)-4H-1,2,4-triazole]",AURORA-A,
"Cc1cccc(-c2nnc(SCC(=O)NCc3ccccc3)n2C)c1 [N-benzyl-2-(4-methyl-5-m-tolyl-4H-1,2,4-triazol-3-ylthio)acetamide]",,MAPKAPK-2 and FYN
COc1ccc(-n2c(SC(C)C(=O)Nc3ccc(C)cc3)nnc2-c2ccc(O)cc2)cc1 (stereo not shown),,GSK3-α
COc1ccccc1-n1c(SCC(=O)c2ccc3c(c2)OCCO3)nnc1-c1cccc(Cl)c1,ROCK2,
"Clc1ccc(Cn2c(SCc3ccccc3)nnc2C2CCCCC2)cc1Cl [3-(benzylthio)-5-cyclohexyl-4-(3,4-dichlorobenzyl)-4H-1,2,4-triazole]",c-TAK1,
O=C(CSc1nnc(-c2ccc(O)cc2)n1CC1CCCO1)NCCc1ccccc1 (stereo not shown),,MSK1
Cn1c(SCC(=O)c2ccc3c(c2)OCCO3)nnc1-c1ccc(S(=O)(=O)N2CCOCC2)cc1,,AURORA-A
"O=[N+]([O-])c1ccc(-c2nnc(SCC(O)CO)[nH]2)cc1 (stereo not shown) [3-(5-(4-nitrophenyl)-4H-1,2,4-triazol-3-ylthio)propane-1,2-diol]",AURORA-A; also recorded: FLT-3; also recorded: DYRK2,
COC(=O)CSc1nnc(CNc2ccc(OC)cc2)n1C,,PDGFRR-α and FYN
COc1ccc(NCc2nnc(SCC(=O)OC(C)C)n2-c2ccc(OC)cc2)cc1,,FYN and CDK2-cyclinE
COCCCn1c(SCc2ccc(Cl)cc2)nnc1-c1ccc(C(C)(C)C)cc1,DAPK1,
Cn1c(CCc2nc3ccccc3[nH]2)nnc1SCCN1CCCCC1,AURORA-A,
O=C(CSc1nnc(-c2ccncc2)n1-c1ccc(F)cc1)Nc1nccs1,,GSK3-α; also recorded: GSK3-β; also recorded: CDK2-cyclinE
CCn1c(COc2cccc3ccccc23)nnc1SCC(=O)NCC1CCCO1 (stereo not shown),,FYN
C=CCSc1nnc(Cn2cnc3ccccc32)n1C,HCK,
Cc1nn(-c2ccccc2)c2sc(-c3nnc(SCCN4CCCCC4)n3C)cc12,GSK3-α; also recorded: CHEK2,
Cn1c(SCC(=O)Nc2nc3ccccc3s2)nnc1-c1ccco1,,GSK3-α
"Cc1nnc(SCc2ccccc2)n1CCc1ccccc1 [3-(benzylthio)-5-methyl-4-phenethyl-4H-1,2,4-triazole]",GSK3-β; also recorded: GSK3-α; also recorded: c-TAK1,
"COc1cccc(OCc2nnc(SC)n2C)c1 [3-((3-methoxyphenoxy)methyl)-4-methyl-5-(methylthio)-4H-1,2,4-triazole]",AURORA-A,
